Results as given in patent US20120190648A1, “FLUORINATED CYCLOPROPANE ANALOGS OF GLUTAMIC ACID” (priority 2009, published 2012).
pEC50: −log10 of the molar value. Where two headings read alike, the source gives them in different places.

Target: mGlu4 receptor (Rattus norvegicus, UniProt P31423)
Assay: mGlu4 receptor test at different doses (1 nM to 1 mM) to determine EC50
Format: cell-based
Experimental: The compounds according to the invention have been tested on the mGlu4 receptor at different doses (between 1 nM and 1 mM) in order to determine their EC50 value. This test has been carried out according to the protocol described in: C. Selvam, C. Goudet, N. Oueslati, J.-P. Pin, F. Acher J. Med. Chem. 2007, 50, 4656-4664.

Sequence of mGlu4 receptor (P31423 33-912): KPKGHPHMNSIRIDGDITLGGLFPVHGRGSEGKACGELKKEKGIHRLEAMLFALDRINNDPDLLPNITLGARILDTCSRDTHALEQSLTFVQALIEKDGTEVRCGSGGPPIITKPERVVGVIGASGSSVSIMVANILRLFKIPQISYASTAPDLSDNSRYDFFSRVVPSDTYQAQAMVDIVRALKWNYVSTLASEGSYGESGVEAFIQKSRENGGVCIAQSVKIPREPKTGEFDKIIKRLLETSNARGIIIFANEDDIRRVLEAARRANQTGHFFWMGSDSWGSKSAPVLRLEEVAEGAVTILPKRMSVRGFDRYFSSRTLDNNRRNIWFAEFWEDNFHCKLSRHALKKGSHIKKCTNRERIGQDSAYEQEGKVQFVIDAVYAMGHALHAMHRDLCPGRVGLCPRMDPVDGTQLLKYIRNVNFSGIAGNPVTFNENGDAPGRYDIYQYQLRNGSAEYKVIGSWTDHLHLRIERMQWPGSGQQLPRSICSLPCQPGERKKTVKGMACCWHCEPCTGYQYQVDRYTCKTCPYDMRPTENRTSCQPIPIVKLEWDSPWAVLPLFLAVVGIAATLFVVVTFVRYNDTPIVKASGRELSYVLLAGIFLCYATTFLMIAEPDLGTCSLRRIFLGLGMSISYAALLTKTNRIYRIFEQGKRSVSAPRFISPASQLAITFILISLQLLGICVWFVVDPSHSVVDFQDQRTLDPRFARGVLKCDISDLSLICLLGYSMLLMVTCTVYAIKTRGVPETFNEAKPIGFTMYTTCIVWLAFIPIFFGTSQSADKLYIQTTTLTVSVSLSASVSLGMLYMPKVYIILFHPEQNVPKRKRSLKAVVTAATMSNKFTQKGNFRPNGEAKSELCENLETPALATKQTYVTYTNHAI

SMILES | pEC50 | pEC50 (mGlu4 receptor, doses between 1 nM and 1 mM, protocol of Selvam et al. J. Med. Chem. 2007, 50, 4656-4664, read-out: EC50)
N[C@]1(C(=O)O)C[C@@]1(F)C(O)P(=O)(O)O (mixture of isomers) [cis-I-3] | 4.56 | –
NC1(C(=O)O)CC1(F)CP(=O)(O)O (racemic) [cis-I-4] | 6.47 | –
NC1(C(=O)O)CC1(F)CS(=O)(=O)O (racemic) [cis-I-6] | – | 4.07
